In the supplement of paper PMC11061612:

Experiments:
[1] = compound: CC(C)n1c(=O)n(C)c2cnc3cc(F)c(-c4ccc(OCCCN5CCCCC5)nc4)cc3c21 [AZD1390]; details: max 0.3 µM
In short: (§1)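 Plates with 1536 wells received cancer cell lines in 7.5 μl of DMEM/F12 or RPMI containing 10% FBS. After 24 hours at 37°C and 5% CO2, cells were dosed for 72 hours with final DMSO typically 0.2%, and viability was read by CellTiter-Glo 2.0 luminescence scaled between blank-well and DMSO-well means. The single-agent IC50 was taken from a logistic fit of the dose responses made with a non-linear mixed effects model, that logistic curve having two parameters.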

[2] = compound: CC(=O)c1c(C)c2cnc(Nc3ccc(N4CCNCC4)cn3)nc2n(C2CCCC2)c1=O [Palbociclib]; details: max 10 µM
In short: as §1

[3] = compound: Nc1ccn([C@@H]2O[C@H](CO)[C@@H](O)C2(F)F)c(=O)n1 [Gemcitabine]; details: max 0.3 µM
In short: as §1

[4] = compound: COc1cccc2c1C(=O)c1c(O)c3c(c(O)c1C2=O)C[C@@](O)(C(=O)CO)C[C@@H]3O[C@H]1C[C@H](N)[C@H](O)[C@H](C)O1 [Doxorubicin]; details: max 1 µM
In short: as §1

[5] = compound: CC1(C)CCC(CN2CCN(c3ccc(C(=O)NS(=O)(=O)c4ccc(NCC5CCOCC5)c([N+](=O)[O-])c4)c(Oc4cnc5[nH]ccc5c4)c3)CC2)=C(c2ccc(Cl)cc2)C1 [Venetoclax]; details: max 1 µM
In short: as §1

[6] = compound: COc1nnc2ccc(N3CCC(c4ccc(OCCN5CCN(C)C(=O)[C@H]5C)cc4)CC3)nn12 [AZD5153]; details: max 1 µM
In short: as §1

[7] = compound: Cc1cc2ncnn2cc1Nc1ncc2c(n1)n(C1CCOCC1)c(=O)n2C [AZD7648]; details: max 10 µM
In short: as §1

[8] = compound: CN(CC[C@H](CSC1=CC=CC=C1)NC2=C(C=C(C=C2)S(=O)(=O)NC(=O)C3=CC=C(C=C3)N4CCC(CC4)[C@H](C5=CC=CC=C5C6=CC=C(C=C6)Cl)O)S(=O)(=O)C(F)(F)F)CCO [AZD4320]; details: max 1 µM
In short: as §1

[9] = compound: C[C@@H](c1ccc2nccn2c1)n1nnc2ncc(-c3cnn(C)c3)nc21 [Savolitinib]; details: max 1 µM
In short: as §1

[10] = compound: C=CCn1c(=O)c2cnc(Nc3ccc(N4CCN(C)CC4)cc3)nc2n1-c1cccc(C(C)(C)O)n1 [AZD1775]; details: max 3 µM
In short: as §1

[11] = compound: N#Cc1cnc(Nc2cc(NC[C@H]3CNCCO3)c(C(F)(F)F)cn2)cn1 [SRA737]; details: max 10 µM
In short: as §1

[12] = compound: COc1cc2ncnc(Nc3ccc(F)c(Cl)c3)c2cc1OCCCN1CCOCC1 [Gefitinib]; details: max 10 µM
In short: as §1

[13] = compound: NC1(c2ccc(-c3nc4ccn5c(=O)[nH]nc5c4cc3-c3ccccc3)cc2)CCC1 [MK-2206]; details: max 10 µM
In short: as §1

[14] = compound: C[C@@H](Oc1cc(-c2cnn(C3CCNCC3)c2)cnc1N)c1c(Cl)ccc(F)c1Cl [Crizotinib]; details: max 10 µM
In short: as §1

[15] = compound: C1CN(CCC1(C(=O)N[C@@H](CCO)C2=CC=C(C=C2)Cl)N)C3=NC=NC4=C3C=CN4 [AZD5363]; details: max 10 µM
In short: as §1

[16] = compound: COc1cc(Nc2ncc3c(n2)-c2ccc(Cl)cc2C(c2c(F)cccc2OC)=NC3)ccc1C(=O)O [Alisertib]; details: max 10 µM
In short: as §1

[17] = compound: Cc1nc(-c2cn3c(n2)-c2ccc(-c4cnn(C(C)(C)C(N)=O)c4)cc2OCC3)n(C(C)C)n1 [Taselisib]; details: max 10 µM
In short: as §1

[18] = compound: CC1=C(C(=CC=C1)Cl)NC(=O)C2=CN=C(S2)NC3=CC(=NC(=N3)C)N4CCN(CC4)CCO [Dasatinib]; details: max 2 µM
In short: as §1

[19] = compound: CC(=O)Nc1cccc(-n2c(=O)n(C3CC3)c(=O)c3c(Nc4ccc(I)cc4F)n(C)c(=O)c(C)c32)c1 [Trametinib]; details: max 1 µM
In short: as §1

[20] = compound: Cn1cnc2c(F)c(Nc3ccc(Br)cc3Cl)c(C(=O)NOCCO)cc21 [Selumetinib]; details: max 10 µM
In short: as §1

[21] = compound: COc1cc([C@@H]2c3cc4c(cc3[C@@H](O[C@@H]3O[C@@H]5CO[C@@H](C)O[C@H]5[C@H](O)[C@H]3O)[C@H]3COC(=O)[C@H]23)OCO4)cc(OC)c1O [Etoposide]; details: max 10 µM
In short: as §1

[22] = compound: O=C(Nc1ccc2[nH]nc(-c3ccncc3)c2c1)[C@@H]1CCN(CC(=O)N2CCN(c3ccc(-c4ncccn4)cc3)CC2)C1; details: max 5 µM
In short: as §1

[23] = compound: CN(C)CCCOc1ccc(-c2ccc3ncc4c(c3c2)n(C2CCOCC2)c(=O)n4C)cn1 [AZD0156]; details: max 3 µM
In short: as §1

[24] = compound: C[C@@H]1COCCN1C2=NC(=NC(=C2)C3(CC3)[S@](=N)(=O)C)C4=C5C=CNC5=NC=C4 [AZD6738]; details: max 10 µM
In short: as §1

[25] = compound: CC1=CN2[C@@H](C1)C=NC3=CC(=C(C=C3C2=O)OC)OCCCCCOC4=C(C=C5C(=C4)N=C[C@@H]6CC(=CN6C5=O)C)OC [SG3199]; details: max 0.001 µM
In short: as §1

[26] = compound: CC(=O)O[C@H]1C(=O)[C@@]2(C)[C@H]([C@H](OC(=O)c3ccccc3)[C@]3(O)C[C@H](OC(=O)[C@H](O)[C@@H](NC(=O)c4ccccc4)c4ccccc4)C(C)=C1C3(C)C)[C@]1(OC(C)=O)CO[C@@H]1C[C@@H]2O [Paclitaxel]; details: max 3 µM
In short: as §1

[27] = compound: COc1cccc(OCCCN)c1-c1cc(Nc2cnc(C#N)cn2)n[nH]1 [Prexasertib]; details: max 1 µM
In short: as §1

[28] = compound: Cc1c2c(nn1C)CSCc1cc(n(C)n1)CSc1cc(c3ccccc3c1)OCCCc1c(C(=O)O)n(C)c3c-2c(Cl)ccc13 [AZD5991]; details: max 1 µM
In short: as §1

[29] = compound: O=C(c1cc(Cc2n[nH]c(=O)c3ccccc23)ccc1F)N1CCN(C(=O)C2CC2)CC1 [Olaparib]; details: max 10 µM
In short: as §1

[30] = compound: O=c1[nH]cc(F)c(=O)[nH]1 [5-Fluorouracil]; details: max 20 µM
In short: as §1

[31] = compound: CS(=O)(=O)CCNCc1ccc(-c2ccc3ncnc(Nc4ccc(OCc5cccc(F)c5)c(Cl)c4)c3c2)o1 [Lapatinib]; details: max 10 µM
In short: as §1

[32] = compound: C1CC(C1)(C(=O)[O-])C(=O)[O-].N.N.[Pt+2] [Carboplatin]; details: max 10 µM
In short: as §1

[33] = compound: CCN(CCO)CCCOc1ccc2c(Nc3cc(CC(=O)Nc4cccc(F)c4)[nH]n3)ncnc2c1 [AZD2811]; details: max 1 µM
In short: as §1

[34] = compound: CCc1c2c(nc3ccc(O)cc13)-c1cc3c(c(=O)n1C2)COC(=O)[C@]3(O)CC [SN-38]; details: max 0.3 µM
In short: as §1

[35] = compound: C[C@@H](Nc1cc(F)cc(F)c1)c1cc(C(=O)N(C)C)cc2c(=O)cc(N3CCOCC3)oc12 [AZD8186]; details: max 10 µM
In short: as §1

Cell Line	IC50, cell viability 72 h [1] [nM]	IC50, cell viability 72 h [2] [µM]	IC50, cell viability 72 h [3] [nM]	IC50, cell viability 72 h [4] [nM]	IC50, cell viability 72 h [5] [nM]	IC50, cell viability 72 h [6] [nM]	IC50, cell viability 72 h [7] [µM]	IC50, cell viability 72 h [8] [nM]	IC50, cell viability 72 h [9] [nM]	IC50, cell viability 72 h [10] [nM]	IC50, cell viability 72 h [11] [nM]	IC50, cell viability 72 h [12] [µM]	IC50, cell viability 72 h [13] [µM]	IC50, cell viability 72 h [14] [nM]	IC50, cell viability 72 h [15] [µM]	IC50, cell viability 72 h [16] [µM]	IC50, cell viability 72 h [17] [µM]	IC50, cell viability 72 h [18] [nM]	IC50, cell viability 72 h [19] [nM]	IC50, cell viability 72 h [20] [µM]	IC50, cell viability 72 h [21] [µM]	IC50, cell viability 72 h [22] [µM]	IC50, cell viability 72 h [23] [nM]	IC50, cell viability 72 h [24] [µM]	IC50, cell viability 72 h [25] [nM]	IC50, cell viability 72 h [26] [nM]	IC50, cell viability 72 h [27] [nM]	IC50, cell viability 72 h [28] [nM]	IC50, cell viability 72 h [29] [µM]	IC50, cell viability 72 h [30] [µM]	IC50, cell viability 72 h [31] [µM]	IC50, cell viability 72 h [32] [µM]	IC50, cell viability 72 h [33] [nM]	IC50, cell viability 72 h [34] [nM]	IC50, cell viability 72 h [35] [µM]
CAL-62 (Thyroid Gland Carcinoma)	> 300	> 10	35.5	372	> 1000	127	> 10	> 1000	> 1000	1320	> 10000	> 10	> 10	> 10000	> 10	> 10	> 10	784	551	> 10	3.42	4.09	> 3000	5.21	> 1	7.33	158	> 1000	> 10	> 20	> 10	> 10	> 1000	4.59	> 10
COLO-680N (Esophageal Squamous Cell Carcinoma)	> 300	> 10	> 300	> 1000	> 1000	> 1000	> 10	> 1000	> 1000	> 3000	> 10000	> 10	> 10	> 10000	> 10	> 10	> 10	> 2000	> 1000	> 10	> 10	> 5	> 3000	> 10	> 1	1300	> 1000	> 1000	> 10	> 20	> 10	> 10	> 1000	> 300	> 10
HSC-39 (Gastric Carcinoma)	> 300	4.37	11.7	160	561	322	> 10	> 1000	> 1000	398	519	> 10	> 10	2060	> 10	< 0.01	0.791	> 2000	423	> 10	1.23	2.88	> 3000	0.538	> 1	4.55	4.86	55.6	> 10	16.6	5.62	> 10	150	7.39	> 10
IST-MES1 (Mesothelioma)	> 300	> 10	181	430	> 1000	246	> 10	> 1000	> 1000	> 3000	> 10000	> 10	> 10	> 10000	> 10	> 10	> 10	243	> 1000	> 10	> 10	> 5	> 3000	> 10	> 1	504	> 1000	> 1000	> 10	> 20	> 10	> 10	> 1000	61.4	> 10
L-1236 (Hodgkin's Lymphoma)	> 300	6.34	17.7	> 1000	861	13.2	> 10	89.5	> 1000	85.4	969	> 10	8.4	1940	2.81	> 10	9.38	> 2000	> 1000	> 10	3.35	> 5	> 3000	3.96	> 1	36.2	32.7	> 1000	> 10	> 20	> 10	> 10	> 1000	62.4	2.08
